{"source": "patent US20260232851A1", "about": "“METHODS FOR THE DETECTION AND DIAGNOSIS OF CANCERS ASSOCIATED WITH OVEREXPRESSION OF PSMA RECEPTOR” (CLARITY PHARMACEUTICALS LIMITED, priority 2023, published 2026)", "key": {"[1]": {"target": "T1, PSMA receptor (Homo sapiens, UniProt Q04609)", "T1 construct": "localises at sites that overexpress the PSMA receptor and are indicative of a cancer; from tissue; host or cells: Primary prostate cancer and metastatic lesions (lymph node, bone, prostatic bed) in living patients", "T1 sequence (Q04609 whole entry)": "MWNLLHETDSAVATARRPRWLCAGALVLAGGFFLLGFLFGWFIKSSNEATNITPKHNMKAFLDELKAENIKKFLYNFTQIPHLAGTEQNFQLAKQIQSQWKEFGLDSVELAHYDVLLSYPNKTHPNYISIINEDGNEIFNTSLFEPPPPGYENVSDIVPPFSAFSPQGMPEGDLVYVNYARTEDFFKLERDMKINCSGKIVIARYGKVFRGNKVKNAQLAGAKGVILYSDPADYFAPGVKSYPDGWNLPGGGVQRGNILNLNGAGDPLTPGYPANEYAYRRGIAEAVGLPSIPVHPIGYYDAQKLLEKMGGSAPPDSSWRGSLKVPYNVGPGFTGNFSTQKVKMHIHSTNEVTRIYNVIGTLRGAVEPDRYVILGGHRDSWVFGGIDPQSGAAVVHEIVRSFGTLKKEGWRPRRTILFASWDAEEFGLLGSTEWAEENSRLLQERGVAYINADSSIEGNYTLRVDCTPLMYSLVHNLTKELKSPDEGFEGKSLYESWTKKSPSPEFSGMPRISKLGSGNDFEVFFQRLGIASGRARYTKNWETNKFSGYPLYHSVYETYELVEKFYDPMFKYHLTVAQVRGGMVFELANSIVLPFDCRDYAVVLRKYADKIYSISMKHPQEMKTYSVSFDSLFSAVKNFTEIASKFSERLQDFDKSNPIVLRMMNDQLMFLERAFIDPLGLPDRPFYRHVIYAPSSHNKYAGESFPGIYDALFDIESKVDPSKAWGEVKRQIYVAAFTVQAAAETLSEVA", "experiment": "PET/CT lesion intensity (SUVmax, SUVmean, TTBR) in patients with untreated primary prostate cancer", "format": "in vivo", "conditions": "for Tumor to background ratio compared between ^64Cu-Sar-bisPSMA and ^68Ga-PSMA-11 (words): concordant lesions, FIG. 6; for Tumor to background ratio compared between ^64Cu-Sar-bisPSMA and ^68Ga-PSMA-11 (words) / SUVmean of lesions compared between ^64Cu-Sar-bisPSMA and ^68Ga-PSMA-11 (words) / SUVmax of lesions compared between ^64Cu-Sar-bisPSMA and ^68Ga-PSMA-11 (words): two readers; for SUVmean of lesions compared between ^64Cu-Sar-bisPSMA and ^68Ga-PSMA-11 (words) / SUVmax of lesions compared between ^64Cu-Sar-bisPSMA and ^68Ga-PSMA-11 (words): same subjects; for SUVmean of lesions compared between ^64Cu-Sar-bisPSMA and ^68Ga-PSMA-11 (words): FIG. 5; for SUVmax of lesions compared between ^64Cu-Sar-bisPSMA and ^68Ga-PSMA-11 (words): FIGS. 2, 4", "method": "(§1) Patients with untreated, histopathology-proven, intermediate- to high-risk PC, planned for radical prostatectomy underwent ^68Ga-PSMA-11 PET/CT per institutional practice and were subsequently allocated to 1 out of 3 dose cohorts (1:1:3) to receive either 100 MBq, 150 MBq or 200 MBq of ^64Cu-SAR-bisPSMA, respectively. The specified dose of ^64Cu-Sar-bisPSMA was administered to each patient as a single bolus IV injection. […] PET/CT scans at other times after injection of the compound were acquired as required.\n(§2) Patients were scanned using the standard clinical whole-body PET/CT acquisition protocol defined for each clinical site and in accordance with the Image Acquisition Manual, which contains details of scan acquisition, processing parameters and quality assurance procedures. The same scanner was used for each visit. Typical imaging acquisition parameters are below:\n(§3) Two independent, blinded, central readers assessed the detection of primary PC on the 200 MBq ^64Cu-SAR-bisPSMA PET/CTs as the primary endpoint. To compare the intensity of lesions on ^68Ga-PSMA-11 and ^64Cu-SAR-bisPSMA PET, both readers determined the SUVs (SUVmax, SUVmean) and tumour-to-background ratio (ratio of lesion SUVmax and background SUVmean) in up to 5 concordant lesions between ^68Ga-PSMA-11 and ^64Cu-SAR-bisPSMA PET/CT as an exploratory endpoint.\nTables 1 and 2 below compare SUV parameters obtained from PET/CT images after administration of ^68Ga-PSMA-11 and a dose of 200 MBq of ^64Cu-SAR-bisPSMA from each reader.\nTables 3 and 4 below compare SUV parameters obtained from PET/CT images after administration of ^68Ga-PSMA-11 (200 MBq) and ^64Cu-SAR-bisPSMA (200 MBq) from each reader."}, "[2]": {"target": "T1, PSMA receptor", "experiment": "Blinded central reader detection of primary prostate cancer and lesions on PET/CT", "format": "in vivo", "conditions": "for % TPR (True Positive Rate), detection of primary prostate cancer: 200 MBq ^64Cu-Sar-bisPSMA; for % FNR (False Negative Rate): indeterminate results analysed as negative; for Detection of secondary lesion in lymph node by PET/CT (FIG. 3): same subject imaged with both tracers", "method": "as §1, §2, §3\nTable 5 compares the number of positive, negative and indeterminate images as assessed by each reader. Reader 1 detected primary prostate cancer in 100% of patients to whom 200 MBq of ^64Cu-Sar-bisPSMA was administered, while Reader 2 detected 85.7% of patients. This is in contrast to 77.8% and 83.3%, respectively, when ^68Ga-PSMA-11 was administered.\nThe number of lesions detected by each reader with imaging by either ^64Cu-Sar-bisPSMA or ^68Ga-PSMA-11 was evaluated. For both readers, the total number of lesions, the mean and median number of lesions detected as a result of imaging by ^64Cu-Sar-bisPSMA was higher when compared with imaging by ^68Ga-PSMA-11, with the difference in these values being statistically significant."}, "[3]": {"conditions": "Table 4, second reader, ^64Cu vs ^68Ga, N=16"}, "[4]": {"conditions": "Reader 1, 200 MBq cohort, scans/evaluable scans"}, "[5]": {"conditions": "Reader 2, 200 MBq cohort, 4 ^64Cu scans excluded as non-evaluable"}}, "note": "“Also recorded” adds a separate entry of the source. Marks after values point to notes of the source that are not given here."}
{"substance": "Sar-bisPSMA [^64Cu-SAR-bisPSMA]", "values": [{"measurement": "SUVmean Mean", "setting": "[1]; Table 4, second reader, N=16", "value": 33.24}, {"measurement": "SUVmean Median", "setting": "[1]; Table 4, second reader, N=16", "value": 28.4}, {"measurement": "SUVmean Min", "setting": "[1]; Table 4, second reader, N=16", "value": 4.4}, {"measurement": "TTBR (Tumour-to-Background Ratio) Mean", "setting": "[1]; Table 4, second reader, N=16", "value": 93.86}, {"measurement": "TTBR Max", "setting": "[1]; Table 4, second reader, N=16", "value": 243.9}, {"measurement": "TTBR Median", "setting": "[1]; Table 4, second reader, N=16", "value": 78.37}, {"measurement": "TTBR Min", "setting": "[1]; Table 4, second reader, N=16", "value": 6.7}, {"measurement": "SUVmax Median Difference", "setting": "[1]; [3]", "value": 27.99}, {"measurement": "SUVmean Median Difference", "setting": "[1]; [3]", "value": 18.78}, {"measurement": "TTBR Median Difference", "setting": "[1]; [3]", "value": 46.93}, {"measurement": "SUVmax Mean", "setting": "[1]; Table 4, second reader, ^68Ga-PSMA-11 (200 MBq) vs ^64Cu-SAR-bisPSMA (200 MBq) PET/CT, lesions averaged per participant, N=16", "value": 49.73}, {"measurement": "Tumor to background ratio compared between ^64Cu-Sar-bisPSMA and ^68Ga-PSMA-11 (words)", "setting": "[1]; listed as 64Cu-Sar-bisPSMA", "value": "higher"}, {"measurement": "Tumor to background ratio compared between ^64Cu-Sar-bisPSMA and ^68Ga-PSMA-11 (words)", "setting": "[1]; listed as 64Cu-SarbisPSMA", "value": "higher tumour to background ratio"}, {"measurement": "SUVmean of lesions compared between ^64Cu-Sar-bisPSMA and ^68Ga-PSMA-11 (words)", "setting": "[1]", "value": "consistently higher"}, {"measurement": "SUVmean of lesions compared between ^64Cu-Sar-bisPSMA and ^68Ga-PSMA-11 (words)", "setting": "[1]; listed as 64Cu-Sar-bis-PSMA", "value": "higher SUVmean"}, {"measurement": "SUVmean of lesions compared between ^64Cu-Sar-bisPSMA and ^68Ga-PSMA-11 (words)", "setting": "[1]; listed as 64Cu-Sar-bisPSMA", "value": "greater"}, {"measurement": "SUVmax of lesions compared between ^64Cu-Sar-bisPSMA and ^68Ga-PSMA-11 (words)", "setting": "[1]", "value": "consistently higher"}, {"measurement": "SUVmax of lesions compared between ^64Cu-Sar-bisPSMA and ^68Ga-PSMA-11 (words)", "setting": "[1]; listed as 64Cu-Sar-bisPSMA", "value": "higher SUVmax; also recorded: greater"}, {"measurement": "SUVmax of lesions compared between ^64Cu-Sar-bisPSMA and ^68Ga-PSMA-11 (words)", "setting": "[1]; listed as 64Cu-SarbisPSMA", "value": "higher SUVmax"}, {"measurement": "Mean Difference in number of lesions (^64Cu − ^68Ga)", "setting": "[2]; 200 MBq Cohort, Reader 1", "value": 0.28}, {"measurement": "Mean Number of Lesions per Participant", "setting": "[2]; 200 MBq Cohort, Reader 1", "value": 2.3}, {"measurement": "Median Difference in number of lesions (^64Cu − ^68Ga)", "setting": "[2]; 200 MBq Cohort, Reader 1", "value": 0.0}, {"measurement": "Median Number of Lesions per Participant", "setting": "[2]; 200 MBq Cohort, Reader 1", "value": 2}, {"measurement": "Total # of Lesions Detected (all participants)", "setting": "[2]; 200 MBq Cohort, Reader 1", "value": 41}, {"measurement": "Mean Difference in number of lesions (^64Cu − ^68Ga)", "setting": "[2]; 200 MBq Cohort, Reader 2", "value": 0.64}, {"measurement": "Mean Number of Lesions per Participant", "setting": "[2]; 200 MBq Cohort, Reader 2", "value": 2.2}, {"measurement": "Median Difference in number of lesions (^64Cu − ^68Ga)", "setting": "[2]; 200 MBq Cohort, Reader 2", "value": 0.0}, {"measurement": "Median Number of Lesions per Participant", "setting": "[2]; 200 MBq Cohort, Reader 2", "value": 2}, {"measurement": "Total # of Lesions Detected (all participants)", "setting": "[2]; 200 MBq Cohort, Reader 2", "value": 31}, {"measurement": "Mean Difference in number of lesions (^64Cu − ^68Ga)", "setting": "[2]; All Cohorts, Reader 1 (N = 29)", "value": 0.41}, {"measurement": "Mean Number of Lesions per Participant", "setting": "[2]; All Cohorts, Reader 1 (N = 29)", "value": 2.2}, {"measurement": "Median Difference in number of lesions (^64Cu − ^68Ga)", "setting": "[2]; All Cohorts, Reader 1 (N = 29)", "value": 0.0}, {"measurement": "Median Number of Lesions per Participant", "setting": "[2]; All Cohorts, Reader 1 (N = 29)", "value": 2}, {"measurement": "Total # of Lesions Detected (all participants)", "setting": "[2]; All Cohorts, Reader 1 (N = 29)", "value": 63}, {"measurement": "Mean Difference in number of lesions (^64Cu − ^68Ga)", "setting": "[2]; All Cohorts, Reader 2 (N = 17)", "value": 0.52}, {"measurement": "Mean Number of Lesions per Participant", "setting": "[2]; All Cohorts, Reader 2 (N = 17)", "value": 2}, {"measurement": "Median Difference in number of lesions (^64Cu − ^68Ga)", "setting": "[2]; All Cohorts, Reader 2 (N = 17)", "value": 0.0}, {"measurement": "Median Number of Lesions per Participant", "setting": "[2]; All Cohorts, Reader 2 (N = 17)", "value": 4}, {"measurement": "Total # of Lesions Detected (all participants)", "setting": "[2]; All Cohorts, Reader 2 (N = 17)", "value": 34}, {"measurement": "% TPR (True Positive Rate), detection of primary prostate cancer", "setting": "[2]; Reader 1", "value": 100.0, "unit": "%"}, {"measurement": "Positive images (primary prostate cancer)", "setting": "[2]; Reader 1, 200 MBq ^64Cu-Sar-bisPSMA cohort, scans/evaluable scans", "value": "18/18"}, {"measurement": "% TPR (True Positive Rate), detection of primary prostate cancer", "setting": "[2]; Reader 1, listed as 64Cu-Sar-bisPSMA", "value": 100, "unit": "%"}, {"measurement": "Indeterminate images", "setting": "[2]; [4]", "value": "0/18"}, {"measurement": "Negative images", "setting": "[2]; [4]", "value": "0/18"}, {"measurement": "% FNR (False Negative Rate)", "setting": "[2]; Reader 1", "value": 0.0, "unit": "%"}, {"measurement": "% TPR (True Positive Rate), detection of primary prostate cancer", "setting": "[2]; Reader 2", "value": 85.7, "unit": "%"}, {"measurement": "Indeterminate images", "setting": "[2]; [5]", "value": "2/14*"}, {"measurement": "Negative images", "setting": "[2]; [5]", "value": "0/14*"}, {"measurement": "Positive images (primary prostate cancer)", "setting": "[2]; [5]", "value": "12/14*"}, {"measurement": "% FNR (False Negative Rate)", "setting": "[2]; Reader 2", "value": 14.3, "unit": "%"}, {"measurement": "Total, mean and median number of lesions detected compared with ^68Ga-PSMA-11", "setting": "[2]; both readers", "value": "higher"}, {"measurement": "Detection of secondary lesion in lymph node by PET/CT (FIG. 3)", "setting": "[2]", "value": "Detection of a secondary lesion"}, {"measurement": "Detection of secondary lesion in lymph node by PET/CT (FIG. 3)", "setting": "[2]; listed as compound of Formula (I) complexed with ^64Cu", "value": "clearly identifies a lesion"}]}
